From patent publication US20210189342A1, “COMPOSITIONS AND METHODS FOR MODULATING MONOCYTE AND MACROPHAGE INFLAMMATORY PHENOTYPES AND IMMUNOTHERAPY USES THEREOF” (Verseau Therapeutics, Inc., priority 2018, published 2021)

These substances were tested on LST1 (assay: siRNA dose response, LST1 mRNA knockdown, bDNA Assay). Details: THP-1, 24 hr.
Type: cell-based, human
Experimental: (§1) Dose response curves for siRNAs were generated in vitro using a variety of cell lines according to Table 4.
(§2) Briefly, cells were seeded in 96-well plates and reverse transfected with siRNA, Lipofectamine® 2000 (0.5 uL/well; ThermoFisher), and, in some cases, a reporter plasmid (50 ng/well). The reporter plasmid (psiCHECK™-2, Promega) encoded both firefly luciferase and the gene of interest fused to renilla luciferase; silencing of the gene of interest results in proportional silencing of renilla luciferase but leaves firefly luciferase unaffected as an internal control.
(§3) After 24 hr incubation at 37° C., mRNA knockdown was measured using an endpoint assay. For targets without a reporter plasmid, a branched DNA (bDNA) assay was performed according to the manufacturer's instructions (QuantiGene® Singleplex Gene Expression Assay, ThermoFisher) to measure both the target gene and GAPDH (housekeeping gene) mRNA. Data are plotted as siRNA concentration (nM) vs. remaining mRNA (ratio of target gene to GAPDH, normalized to mock siRNA-transfected cells). For targets with a reporter plasmid, a Dual-Glo® Luciferase Assay was performed according to the manufacturer's instructions (Promega) to measure firefly and renilla luciferase expression. Data are plotted as siRNA concentration (nM) vs. remaining mRNA (ratio of renilla to firefly luminescence, normalized to mock siRNA-transfected cells).
(§4) For all dose response curves, a 4-parameter logistic model was applied to determine the IC50 of each siRNA sequence (Table 5 and FIG. 2). Data shown in Table 5 and FIG. 2 represent the mean of quadruplicates, +/−standard deviation.

| Substance | IC50 [nM] |
| --- | --- |
| XD-09754: siRNA targeting LST1 (sense 5'-caAGGAGGAuccAaGAGcudTsdT-3'; antisense 5'-AGCUCUUGGAUCCUCCUUGdTsdT-3'; RNA with 2'-O-methyl and phosphorothioate modifications, case key not given here, as printed in the source, key not given here) | 0.052 |
| XD-09755: siRNA targeting LST1 (sense 5'-ggAuccAAGAGcugAcuAudTsdT-3'; antisense 5'-AuAGUcAGCUCUUGGAUCCdTsdT-3'; RNA with 2'-O-methyl and phosphorothioate modifications, case key not given here, as printed in the source, key not given here) | 0.046 |
| XD-09756: siRNA targeting LST1 (sense 5'-ucucGAGccuccGuucAAAdTsdT-3'; antisense 5'-UUUGAACGGAGGCUCGAGAdTsdT-3'; RNA with 2'-O-methyl and phosphorothioate modifications, case key not given here, as printed in the source, key not given here) | 6.6 |
| XD-09758: siRNA targeting LST1 (sense 5'-ugAucAucAucAAaAcuuAdTsdT-3'; antisense 5'-uAAGUUUUGAUGAUGAUcAdTsdT-3'; as printed in the source, key not given here) | 8.21 |

The substances below were run on CXorf21 (assay: siRNA dose response, CXorf21 mRNA knockdown, bDNA Assay). Details: THP-1, 24 hr.
Type: cell-based, human
Experimental: as §1, §2, §3, §4

| Substance | IC50 [nM] |
| --- | --- |
| XD-10502: siRNA targeting CXorf21 (sense 5'-cuGucAGAAGGGuaucucAdTsdT-3'; antisense 5'-UGAGAuACCCUUCUGAcAGdTsdT-3'; RNA with 2'-O-methyl and phosphorothioate modifications, case key not given here, as printed in the source, key not given here) | 6.03 |
| XD-10503: siRNA targeting CXorf21 (sense 5'-cuAcGuGAGcuGcaAAucAdTsdT-3'; antisense 5'-UGAUUUGcAGCUcACGuAGdTsdT-3'; RNA with 2'-O-methyl and phosphorothioate modifications, case key not given here, as printed in the source, key not given here) | 0.654 |
| XD-10504: siRNA targeting CXorf21 (sense 5'-gguGAuGGccAuuaAuucAdTsdT-3'; antisense 5'-UGAAUuAAUGGCcAUcACCdTsdT-3'; as printed in the source, key not given here) | 1.76 |
| XD-10505: siRNA targeting CXorf21 (sense 5'-cauuAuGGAcAccguGuuudTsdT-3'; antisense 5'-AAAcACGGUGUCcAuAAUGdTsdT-3'; RNA with 2'-O-methyl and phosphorothioate modifications, case key not given here, as printed in the source, key not given here) | 13.1 |
| XD-10506: siRNA targeting CXorf21 (sense 5'-gucuGAAcucAucauGAcAdTsdT-3'; antisense 5'-UGUcAUGAUGAGUUcAGACdTsdT-3'; as printed in the source, key not given here) | 0.75 |
| XD-10508: siRNA targeting CXorf21 (sense 5'-caAuGuAAAuccAuAGAGAdTsdT-3'; antisense 5'-UCUCuAUGGAUUuAcAUUGdTsdT-3'; as printed in the source, key not given here) | 1.65 |

These substances were tested on CD33 (assay: siRNA dose response, CD33 mRNA knockdown, bDNA Assay). Details: SK-MEL-2, 24 hr.
Type: cell-based, human
Experimental: as §1, §2, §3, §4

| Substance | IC50 [nM] |
| --- | --- |
| XD-09732: siRNA targeting CD33 (sense 5'-ggccccAGGAcuAcucAcudTsdT-3'; antisense 5'-AGUGAGuAGUCCUGGGGCCdTsdT-3'; as printed in the source, key not given here) | 5.4 |
| XD-09734: siRNA targeting CD33 (sense 5'-acuccucGGuGcucAuAAudTsdT-3'; antisense 5'-AUuAUGAGcACCGAGGAGUdTsdT-3'; as printed in the source, key not given here) | 0.74 |
| XD-09735: siRNA targeting CD33 (sense 5'-caAcGucAccuAuguuccAdTsdT-3'; antisense 5'-UGGAAcAuAGGUGACGUUGdTsdT-3'; as printed in the source, key not given here) | 0.818 |
| XD-09736: siRNA targeting CD33 (sense 5'-ucAccuAuGuuccacAGAAdTsdT-3'; antisense 5'-UUCUGUGGAAcAuAGGUGAdTsdT-3'; as printed in the source, key not given here) | 0.176 |
| XD-09737: siRNA targeting CD33 (sense 5'-cccAAcAAcuGGuaucuuudTsdT-3'; antisense 5'-AAAGAuACcAGUUGUUGGGdTsdT-3'; RNA with 2'-O-methyl and phosphorothioate modifications, case key not given here, as printed in the source, key not given here) | 0.334 |
| XD-09738: siRNA targeting CD33 (sense 5'-ccAGAGcAGGAGugGuucAdTsdT-3'; antisense 5'-UGAACcACUCCUGCUCUGGdTsdT-3'; RNA with 2'-O-methyl and phosphorothioate modifications, case key not given here, as printed in the source, key not given here) | 0.22 |

The substances below were run on CD53 (assay: siRNA dose response, CD53 mRNA knockdown, bDNA Assay). Details: THP-1, 24 hr.
Type: cell-based, human
Experimental: as §1, §2, §3, §4

| Substance | IC50 [nM] |
| --- | --- |
| XD-09201: siRNA targeting CD53 (sense 5'-gcAuGAGuAGcuugAAAcudTsdT-3'; antisense 5'-AGUUUcAAGCuACUcAUGCdTsdT-3'; as printed in the source, key not given here) | 0.067 |
| XD-09203: siRNA targeting CD53 (sense 5'-gcAuGGGcucuAucAAGGAdTsdT-3'; antisense 5'-UCCUUGAuAGAGCCcAUGCdTsdT-3'; as printed in the source, key not given here) | 0.178 |

What follows are substances tested on CCR5 (assay: siRNA dose response, CCR5 mRNA knockdown, Dual-Glo Luciferase Assay). Details: Hepal-6 + reporter plasmid, 24 hr.
Type: cell-based, human
Experimental: as §1, §2, §3, §4

| Substance | IC50 [nM] |
| --- | --- |
| XD-10550: siRNA targeting CCR5 (sense 5'-ggAAcAAGAuGGAuuAucAdTsdT-3'; antisense 5'-UGAuAAUCcAUCUUGUUCCdTsdT-3'; as printed in the source, key not given here) | 0.017 |
| XD-10551: siRNA targeting CCR5 (sense 5'-ccAuAcAGucAGuaucAAudTsdT-3'; antisense 5'-AUUGAuACUGACUGuAUGGdTsdT-3'; as printed in the source, key not given here) | 0.046 |
| XD-10552: siRNA targeting CCR5 (sense 5'-cauuAAAGAuAGucAucuudTsdT-3'; antisense 5'-AAGAUGACuAUCUUuAAUGdTsdT-3'; as printed in the source, key not given here) | 0.07 |
| XD-10553: siRNA targeting CCR5 (sense 5'-agGuAuGGuuAAuaAGuuudTsdT-3'; antisense 5'-AAACUuAUuAACcAuACCUdTsdT-3'; as printed in the source, key not given here) | 0.361 |
| XD-10558: siRNA targeting CCR5 (sense 5'-gcAcAuAcuuGAGacuGuudTsdT-3'; antisense 5'-AAcAGUCUcAAGuAUGUGCdTsdT-3'; as printed in the source, key not given here) | 1.05 |
| XD-10559: siRNA targeting CCR5 (sense 5'-gcAAcGAAGGGAAauGucudTsdT-3'; antisense 5'-AGAcAUUUCCCUUCGUUGCdTsdT-3'; as printed in the source, key not given here) | 1.02 |
